Measurements published in patent US6710168B1, “Glycopeptide antibiotics, combinatorial libraries of glycopeptide antibiotics and methods of producing same” (The Trustees of the University of Princeton, priority 1999, dated 2004).
Values after ≈ are worked out from the molar mass of the structure shown.

What was measured:
Type in all cases: cell-based
[1] = test system: Enterococcus faecium CL5137, VanA; assay: MIC susceptibility test; details: Enterococcus faecium CL5137, VanA; for MIC: read-out: MIC CL5137
[2] = test system: gentamicin, streptmycin, vancomycin resistant Enterococcus faecalis (ATCC 51299); assay: microbe, parasite or virus in culture; details: for MIC VREF: Enterococcus faecalis ATCC51299, vancomycin resistance; for MIC: Enterococcus faecalis, ATCC51299, read-out: MIC VREF
Outline: (§1)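 Broth microdilution in cation-adjusted Mueller-Hinton broth, 12-step two-fold series from 5 μg/mL to […], mixed 1:1 with 10^6 CFU/mL cell suspension and incubated 24 h at 37 °C. MTT (1 mg/mL solution) is then added for 30 min (S. aureus, MRSA) or 2 h (E. faecalis strains). MIC = lowest concentration inhibiting growth.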

[3] = test system: Staphylococcus aureus (ATCC 29213); assay: MIC susceptibility test, microdilution with MTT readout; details: Staphylococcus aureus ATCC29213; for MIC: read-out: MIC SA
Outline: as §1

[4] = test system: Methicillin resistant Staphylococcus aureus (ATCC 33591); assay: as above; details: Staphylococcus aureus ATCC3359, Methicillin resistance; for MIC: ATCC 3359 / ATCC 33591 / MRSA, read-out: MIC MRSA
Outline: as §1

[5] = test system: Enterococcus faecalis (ATCC 29212); assay: as above; details: Enterococcus faecalis ATCC29212; for MIC: read-out: MIC EF
Outline: as §1

[6] = test system: Bacillus cereus (ATCC 11778); assay: as above; details: for MIC BC: Bacillus ceres ATCC11778; for MIC: Bacillus cereus, ATCC11778, read-out: MIC BC
Outline: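 Bacillus cereus ATCC® 11778 susceptibility was measured by broth microdilution in 96-well microplates using Cation Adjusted Mueller-Hinton broth. Samples were diluted two-fold from 5 μg/mL over 12 steps. Each well combined 100 μL of cell suspension (10^6 CFU/mL) with 100 μL of antibiotic solution and was incubated at 37° C. for 24 h. Then 50 μL of MTT (1 mg/mL) was added for 30 min, and MIC (μg/mL) was read as the lowest concentration inhibiting growth.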

[7] = test system: Enterococcus faecalis CL5244, VanB; assay: MIC susceptibility test; details: Enterococcus faecalis CL5244, VanB; for MIC: read-out: MIC CL5244
Outline: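 MTT-based broth microdilution in cation-adjusted Mueller-Hinton broth; two-fold 12-step dilutions […], inoculum 10^6 CFU/mL, 37° C for 24 h.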

SMILES	MIC CL5137 [1]	MIC VREF [2] [µg/mL]	MIC SA [3] [µg/mL]	MIC MRSA [4] [µg/mL]	MIC EF [5] [µg/mL]	MIC BC [6] [µg/mL]	MIC CL5244 [7]	MIC [1] [µg/mL]	MIC [2] [µg/mL]	MIC [3] [µg/mL]	MIC [4] [µg/mL]	MIC [5] [µg/mL]	MIC [6] [µg/mL]	MIC [7] [µg/mL]
CCCCCCCCCCNC1(C)CC(OC2C(Oc3c4cc5cc3Oc3ccc(cc3Cl)C(O)C3NC(=O)C(NC(=O)C5NC(=O)C(CC(N)=O)NC(=O)C(NC(=O)C(CC(C)C)NC)C(O)c5ccc(c(Cl)c5)O4)c4ccc(O)c(c4)-c4c(O)cc(O)cc4C(C(=O)O)NC3=O)OC(CO)C(O)C2O)OC(C)C1O (centres unmarked) [N-decyl vancosamine vancomycin, reference compound]	25 µg/mL (≈ 15.7 µM)	0.32 (≈ 0.201 µM)	0.63 (≈ 0.396 µM)	0.48 (≈ 0.302 µM)	0.16 (≈ 0.101 µM)	0.32 (≈ 0.201 µM)	3.2 µg/mL (≈ 2.01 µM)							
CCCCCCCCCCNC1(C)CC(OC2C(Oc3c4cc5cc3Oc3ccc(cc3Cl)C(O)C3NC(=O)C(NC(=O)C5NC(=O)C(CC(N)=O)NC(=O)C(NC(=O)C(CC(C)C)NC)C(O)c5ccc(c(Cl)c5)O4)c4ccc(O)c(c4)-c4c(O)cc(O)cc4C(C(=O)O)NC3=O)OC(CI)C(O)C2O)OC(C)C1O (centres unmarked) [Vancosamine-N-decyl-glucose-C6-iodo-vancomycin]	6.3 µg/mL (≈ 3.71 µM)	0.12 (≈ 0.0706 µM)	1.3 (≈ 0.765 µM)	0.32 (≈ 0.188 µM)	0.08 (≈ 0.0471 µM)	1.0 (≈ 0.588 µM)	0.4< μg/mL							
CN[C@@H](CC(C)C)C(=O)N[C@H]1C(=O)N[C@@H](CC(N)=O)C(=O)N[C@H]2C(=O)NC3C(=O)N[C@H](C(=O)N[C@@H](C(=O)O)c4cc(O)cc(O)c4-c4cc3ccc4O)[C@H](O)c3ccc(c(Cl)c3)Oc3cc2cc(c3OC2OC(CSc3nnc(C)c(O)n3)C(O)C(O)C2OC2CC(C)(NCc3ccc(-c4ccc(Cl)cc4)cc3)C(O)C(C)O2)Oc2ccc(cc2Cl)[C@H]1O (some centres unmarked) [LXXXVI, N-4-(4-Chlorophenyl)benzylvancosamine-glucose-C6-2-thio-6-azathymine Vancomycin]								3.2 (≈ 1.8 µM)	0.16 (≈ 0.0901 µM)	1 (≈ 0.563 µM)	1 (≈ 0.563 µM)	0.12 (≈ 0.0676 µM)	0.32 (≈ 0.18 µM)	0.4 (≈ 0.225 µM)
CCCCCCCCCCNC1(C)CC(OC2C(Oc3c4cc5cc3Oc3ccc(cc3Cl)[C@@H](O)[C@@H](NC(=O)[C@H](CC(C)C)NC)C(=O)N[C@@H](CC(N)=O)C(=O)N[C@H]5C(=O)NC3C(=O)N[C@H](C(=O)N[C@@H](C(=O)O)c5cc(O)cc(O)c5-c5cc3ccc5O)[C@H](O)c3ccc(c(Cl)c3)O4)OC(CSc3nnc(C)c(O)n3)C(O)C2O)OC(C)C1O (some centres unmarked) [LXXIX, N-Decylvancosamine-glucose-C6-2-thio-6-azathymine Vancomycin]								25 (≈ 14.6 µM)	0.63 (≈ 0.367 µM)	2.5 (≈ 1.46 µM)	1.3 (≈ 0.758 µM)	0.32 (≈ 0.187 µM)	0.63 (≈ 0.367 µM)	0.6 (≈ 0.35 µM)
CN[C@@H](CC(C)C)C(=O)N[C@H]1C(=O)N[C@@H](CC(N)=O)C(=O)N[C@H]2C(=O)NC3C(=O)N[C@H](C(=O)N[C@@H](C(=O)O)c4cc(O)cc(O)c4-c4cc3ccc4O)[C@H](O)c3ccc(c(Cl)c3)Oc3cc2cc(c3OC2OC(CSc3ccc(Br)cc3)C(O)C(O)C2OC2CC(C)(N)C(O)C(C)O2)Oc2ccc(cc2Cl)[C@H]1O (some centres unmarked) [LIX, Glucose-C6-1-thio-4-bromobenzene Vancomycin]								> 50	0.32 (≈ 0.197 µM)	0.63 (≈ 0.389 µM)	1 (≈ 0.617 µM)	1 (≈ 0.617 µM)	1.3 (≈ 0.802 µM)	6.3 (≈ 3.89 µM)
CNC(CC(C)C)C(=O)NC1C(=O)NC(CC(N)=O)C(=O)NC2C(=O)NC3C(=O)NC(C(=O)NC(C(=O)O)c4cc(O)cc(O)c4-c4cc3ccc4O)C(O)c3ccc(c(Cl)c3)Oc3cc2cc(c3OC2OC(CNCc3ccc(-c4ccc(Cl)cc4)o3)C(O)C(O)C2OC2CC(C)(N)C(O)C(C)O2)Oc2ccc(cc2Cl)C1O (centres unmarked) [XXX, Glucose-C6-N-5-(4-chlorophenyl)furan-1-methylene Vancomycin]	50< μg/mL	0.63 (≈ 0.384 µM)	0.32 (≈ 0.195 µM)	0.32 (≈ 0.195 µM)	0.63 (≈ 0.384 µM)	0.63 (≈ 0.384 µM)	1.6 µg/mL (≈ 0.976 µM)							
CN[C@@H](CC(C)C)C(=O)N[C@H]1C(=O)N[C@@H](CC(N)=O)C(=O)N[C@H]2C(=O)NC3C(=O)N[C@H](C(=O)N[C@@H](C(=O)O)c4cc(O)cc(O)c4-c4cc3ccc4O)[C@H](O)c3ccc(c(Cl)c3)Oc3cc2cc(c3OC2OC(CN)C(O)C(O)C2OC2CC(C)(NCc3ccc(-c4ccc(Cl)cc4)cc3)C(O)C(C)O2)Oc2ccc(cc2Cl)[C@H]1O (some centres unmarked) [LXXV, N-4-(4-Chlorophenyl)benzylvancosamine-glucose-C6-amine Vancomycin]								2 (≈ 1.21 µM)	0.63 (≈ 0.382 µM)	≤ 0.03	≤ 0.03	≤ 0.03	0.16 (≈ 0.097 µM)	≤ 0.03
CCCCCCCCCCNC1(C)CC(OC2C(Oc3c4cc5cc3Oc3ccc(cc3Cl)[C@@H](O)[C@@H](NC(=O)[C@H](CC(C)C)NC)C(=O)N[C@@H](CC(N)=O)C(=O)N[C@H]5C(=O)NC3C(=O)N[C@H](C(=O)N[C@@H](C(=O)O)c5cc(O)cc(O)c5-c5cc3ccc5O)[C@H](O)c3ccc(c(Cl)c3)O4)OC(CSc3nc4cc(Cl)ccc4s3)C(O)C2O)OC(C)C1O (some centres unmarked) [LXXX, N-Decylvancosamine-glucose-C6-2-thio-5-chlorobenzothiazole Vancomycin]								50 (≈ 28.2 µM)	2.5 (≈ 1.41 µM)	> 5	5 (≈ 2.82 µM)	1.3 (≈ 0.733 µM)	5 (≈ 2.82 µM)	2.4 (≈ 1.35 µM)
CN[C@@H](CC(C)C)C(=O)N[C@H]1C(=O)N[C@@H](CC(N)=O)C(=O)N[C@H]2C(=O)NC3C(=O)N[C@H](C(=O)N[C@@H](C(=O)O)c4cc(O)cc(O)c4-c4cc3ccc4O)[C@H](O)c3ccc(c(Cl)c3)Oc3cc2cc(c3OC2OC(CNC(=O)C(F)(F)F)C(O)C(O)C2OC2CC(C)(N)C(O)C(C)O2)Oc2ccc(cc2Cl)[C@H]1O (some centres unmarked) [XL, Glucose-C6-trifluoroacetamide Vancomycin]								> 50	5 (≈ 3.24 µM)	0.48 (≈ 0.311 µM)	1 (≈ 0.648 µM)	1.3 (≈ 0.842 µM)	1.3 (≈ 0.842 µM)	25 (≈ 16.2 µM)
CCCCCCCCCCNC1(C)CC(OC2C(Oc3c4cc5cc3Oc3ccc(cc3Cl)C(O)C3NC(=O)C(NC(=O)C5NC(=O)C(CC(N)=O)NC(=O)C(NC(=O)C(CC(C)C)NC)C(O)c5ccc(c(Cl)c5)O4)c4ccc(O)c(c4)-c4c(O)cc(O)cc4C(C(=O)O)NC3=O)OC(CNCc3ccc(-c4ccc(Cl)cc4)o3)C(O)C2O)OC(C)C1O (centres unmarked) [XLIX, Glucose-C6-N-5-(4-chlorophenyl)furan-1-methylene-vancosamine-N-decyl Vancomycin]	13 µg/mL (≈ 7.31 µM)	1.3 (≈ 0.731 µM)	5.0 (≈ 2.81 µM)	2.5 (≈ 1.41 µM)	1.9 (≈ 1.07 µM)	3.8 (≈ 2.14 µM)	0.8 µg/mL (≈ 0.45 µM)							
CN[C@@H](CC(C)C)C(=O)N[C@H]1C(=O)N[C@@H](CC(N)=O)C(=O)N[C@H]2C(=O)NC3C(=O)N[C@H](C(=O)N[C@@H](C(=O)O)c4cc(O)cc(O)c4-c4cc3ccc4O)[C@H](O)c3ccc(c(Cl)c3)Oc3cc2cc(c3OC2OC(CSc3nc4cc(OC)ccc4[nH]3)C(O)C(O)C2OC2CC(C)(N)C(O)C(C)O2)Oc2ccc(cc2Cl)[C@H]1O (some centres unmarked) [LXV, Glucose-C6-2-thio-5-methoxybenzimidazole Vancomycin]								> 50	2.5 (≈ 1.55 µM)	1.9 (≈ 1.18 µM)	2.5 (≈ 1.55 µM)	0.63 (≈ 0.391 µM)	0.63 (≈ 0.391 µM)	13 (≈ 8.07 µM)
